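Dose response: 5 concentrations. Exposure: 48 h. Format: 96-well plates. Endpoint: linear interpolation; highest concentration if not reached. The concentration for full growth arrest is given as TGI.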
What was measured:
Assay in all cases: NCI-60 cell line screen, 48 h
OVCAR-3 ovarian = tested on: OVCAR-3 ovarian
SK-MEL-5 melanoma = tested on: SK-MEL-5 melanoma
SK-OV-3 ovarian = tested on: SK-OV-3 ovarian
MALME-3M melanoma = tested on: MALME-3M melanoma
HOP-92 NSCLC = tested on: HOP-92 NSCLC
SF-295 CNS = tested on: SF-295 CNS
A498 renal = tested on: A498 renal
DMS 273 small cell lung = tested on: DMS 273 small cell lung
NCI-H226 lung = tested on: NCI-H226 lung
SK-MEL-28 melanoma = tested on: SK-MEL-28 melanoma
RXF 393 renal = tested on: RXF 393 renal
RXF-631 renal = tested on: RXF-631 renal
UACC-257 melanoma = tested on: UACC-257 melanoma
ACHN renal = tested on: ACHN renal
UO-31 renal = tested on: UO-31 renal
HOP-18 NSCLC = tested on: HOP-18 NSCLC
DLD-1 colon = tested on: DLD-1 colon
M14 melanoma = tested on: M14 melanoma
EKVX NSCLC = tested on: EKVX NSCLC
786-0 renal = tested on: 786-0 renal
KM20L2 colon = tested on: KM20L2 colon
LXFL 529 NSCLC = tested on: LXFL 529 NSCLC
OVCAR-8 ovarian = tested on: OVCAR-8 ovarian
COLO 205 colon = tested on: COLO 205 colon
SF-539 CNS = tested on: SF-539 CNS
SW-620 colon = tested on: SW-620 colon
U251 CNS = tested on: U251 CNS
K-562 leukemia = tested on: K-562 leukemia
M19-MEL melanoma = tested on: M19-MEL melanoma
OVCAR-5 ovarian = tested on: OVCAR-5 ovarian
DMS 114 small cell lung = tested on: DMS 114 small cell lung
IGROV1 ovarian = tested on: IGROV1 ovarian
SF-268 CNS = tested on: SF-268 CNS
RPMI-8226 leukemia = tested on: RPMI-8226 leukemia
HCT-15 colon = tested on: HCT-15 colon
OVCAR-4 ovarian = tested on: OVCAR-4 ovarian
TK-10 renal = tested on: TK-10 renal
HCT-116 colon = tested on: HCT-116 colon
HOP-62 NSCLC = tested on: HOP-62 NSCLC
UACC-62 melanoma = tested on: UACC-62 melanoma
SN12C renal = tested on: SN12C renal
HCC-2998 colon = tested on: HCC-2998 colon
CAKI-1 renal = tested on: CAKI-1 renal
SNB-19 CNS = tested on: SNB-19 CNS
NCI-H522 lung = tested on: NCI-H522 lung
KM12 colon = tested on: KM12 colon
CCRF-CEM leukemia = tested on: CCRF-CEM leukemia
HT29 colon = tested on: HT29 colon
LOX IMVI melanoma = tested on: LOX IMVI melanoma
NCI-H23 lung = tested on: NCI-H23 lung
A549 NSCLC = tested on: A549 NSCLC
NCI-H460 lung = tested on: NCI-H460 lung
MOLT-4 leukemia = tested on: MOLT-4 leukemia
HL-60(TB) leukemia = tested on: HL-60(TB) leukemia
SR leukemia = tested on: SR leukemia
SNB-75 CNS = tested on: SNB-75 CNS
SK-MEL-2 melanoma = tested on: SK-MEL-2 melanoma
SNB-78 CNS = tested on: SNB-78 CNS
XF 498 CNS = tested on: XF 498 CNS

## O=C(C=P(c1ccccc1)(c1ccccc1)c1ccccc1)CC(=S)CC(=O)C=P(c1ccccc1)(c1ccccc1)c1ccccc1
OVCAR-3 ovarian
  TGI: 12.5 µM
SK-MEL-5 melanoma
  TGI: 8.26 µM
SK-OV-3 ovarian
  TGI: > 100 µM
MALME-3M melanoma
  TGI: > 100 µM
HOP-92 NSCLC
  TGI: 6.09 µM
SF-295 CNS
  TGI: 14.5 µM
A498 renal
  TGI: 20.6 µM
DMS 273 small cell lung
  TGI: 10.1 µM
NCI-H226 lung
  TGI: 24.1 µM
SK-MEL-28 melanoma
  TGI: > 100 µM
RXF 393 renal
  TGI: 25.2 µM
RXF-631 renal
  TGI: > 100 µM
UACC-257 melanoma
  TGI: 13 µM
ACHN renal
  TGI: 53.6 µM
UO-31 renal
  TGI: 98.9 µM
HOP-18 NSCLC
  TGI: 9.04 µM
DLD-1 colon
  TGI: 17.9 µM
M14 melanoma
  TGI: 20.5 µM
EKVX NSCLC
  TGI: > 100 µM
786-0 renal
  TGI: > 100 µM
KM20L2 colon
  TGI: > 100 µM
LXFL 529 NSCLC
  TGI: 20.1 µM
OVCAR-8 ovarian
  TGI: 22.9 µM
COLO 205 colon
  TGI: 3.71 µM
SF-539 CNS
  TGI: 25 µM
SW-620 colon
  TGI: > 100 µM
U251 CNS
  TGI: 11.7 µM
K-562 leukemia
  TGI: > 100 µM
M19-MEL melanoma
  TGI: > 100 µM
OVCAR-5 ovarian
  TGI: 80 µM
DMS 114 small cell lung
  TGI: 27 µM
IGROV1 ovarian
  TGI: > 100 µM
SF-268 CNS
  TGI: > 100 µM
RPMI-8226 leukemia
  TGI: > 100 µM
HCT-15 colon
  TGI: 29.3 µM
OVCAR-4 ovarian
  TGI: > 100 µM
TK-10 renal
  TGI: 50.8 µM
HCT-116 colon
  TGI: > 100 µM
HOP-62 NSCLC
  TGI: 24.8 µM
UACC-62 melanoma
  TGI: 47.1 µM
SN12C renal
  TGI: 17.9 µM
HCC-2998 colon
  TGI: 14.7 µM
CAKI-1 renal
  TGI: > 100 µM
SNB-19 CNS
  TGI: > 100 µM
NCI-H522 lung
  TGI: 15.7 µM
KM12 colon
  TGI: 18.8 µM
CCRF-CEM leukemia
  TGI: > 100 µM
HT29 colon
  TGI: > 100 µM
LOX IMVI melanoma
  TGI: > 100 µM
NCI-H23 lung
  TGI: 16.4 µM
A549 NSCLC
  TGI: > 100 µM
NCI-H460 lung
  TGI: 46.7 µM

## COc1cc(C(C)c2cc3c(cc2OCCN)OCO3)cc(OC)c1OC (stereo not drawn)
MOLT-4 leukemia
  TGI: > 100 µM
OVCAR-3 ovarian
  TGI: > 100 µM
MALME-3M melanoma
  TGI: > 100 µM
SF-295 CNS
  TGI: > 100 µM
A498 renal
  TGI: > 100 µM
DMS 273 small cell lung
  TGI: > 100 µM
NCI-H226 lung
  TGI: > 100 µM
SK-MEL-28 melanoma
  TGI: > 100 µM
RXF 393 renal
  TGI: 95.7 µM
RXF-631 renal
  TGI: > 100 µM
UACC-257 melanoma
  TGI: > 100 µM
ACHN renal
  TGI: > 100 µM
UO-31 renal
  TGI: > 100 µM
DLD-1 colon
  TGI: > 100 µM
M14 melanoma
  TGI: > 100 µM
HL-60(TB) leukemia
  TGI: 47 µM
EKVX NSCLC
  TGI: > 100 µM
SR leukemia
  TGI: > 100 µM
786-0 renal
  TGI: > 100 µM
KM20L2 colon
  TGI: 80.8 µM
LXFL 529 NSCLC
  TGI: > 100 µM
OVCAR-8 ovarian
  TGI: > 100 µM
COLO 205 colon
  TGI: > 100 µM
SF-539 CNS
  TGI: > 100 µM
SW-620 colon
  TGI: > 100 µM
U251 CNS
  TGI: > 100 µM
K-562 leukemia
  TGI: > 100 µM
M19-MEL melanoma
  TGI: > 100 µM
OVCAR-5 ovarian
  TGI: > 100 µM
DMS 114 small cell lung
  TGI: > 100 µM
IGROV1 ovarian
  TGI: > 100 µM
SF-268 CNS
  TGI: > 100 µM
RPMI-8226 leukemia
  TGI: > 100 µM
HCT-15 colon
  TGI: > 100 µM
OVCAR-4 ovarian
  TGI: > 100 µM
TK-10 renal
  TGI: > 100 µM
HCT-116 colon
  TGI: > 100 µM
HOP-62 NSCLC
  TGI: > 100 µM
UACC-62 melanoma
  TGI: > 100 µM
SN12C renal
  TGI: > 100 µM
HCC-2998 colon
  TGI: > 100 µM
CAKI-1 renal
  TGI: > 100 µM
SNB-19 CNS
  TGI: > 100 µM
NCI-H522 lung
  TGI: > 100 µM
KM12 colon
  TGI: > 100 µM
SNB-75 CNS
  TGI: 46.8 µM
CCRF-CEM leukemia
  TGI: > 100 µM
HT29 colon
  TGI: > 100 µM
SK-MEL-2 melanoma
  TGI: > 100 µM
LOX IMVI melanoma
  TGI: > 100 µM
NCI-H23 lung
  TGI: > 100 µM
A549 NSCLC
  TGI: > 100 µM
NCI-H460 lung
  TGI: > 100 µM

## CCCCSC(=CC(=O)c1cccc(C(=O)C=C(SCCCC)SCCCC)n1)SCCCC
MOLT-4 leukemia
  TGI: > 100 µM
OVCAR-3 ovarian
  TGI: > 100 µM
SK-MEL-5 melanoma
  TGI: > 100 µM
SK-OV-3 ovarian
  TGI: > 100 µM
MALME-3M melanoma
  TGI: > 100 µM
HOP-92 NSCLC
  TGI: > 100 µM
SF-295 CNS
  TGI: > 100 µM
A498 renal
  TGI: > 100 µM
DMS 273 small cell lung
  TGI: > 100 µM
NCI-H226 lung
  TGI: > 100 µM
SK-MEL-28 melanoma
  TGI: > 100 µM
RXF 393 renal
  TGI: > 100 µM
UACC-257 melanoma
  TGI: > 100 µM
ACHN renal
  TGI: > 100 µM
UO-31 renal
  TGI: > 100 µM
HOP-18 NSCLC
  TGI: > 100 µM
DLD-1 colon
  TGI: > 100 µM
M14 melanoma
  TGI: > 100 µM
HL-60(TB) leukemia
  TGI: > 100 µM
EKVX NSCLC
  TGI: > 100 µM
SR leukemia
  TGI: > 100 µM
786-0 renal
  TGI: > 100 µM
KM20L2 colon
  TGI: > 100 µM
LXFL 529 NSCLC
  TGI: > 100 µM
OVCAR-8 ovarian
  TGI: > 100 µM
COLO 205 colon
  TGI: > 100 µM
SF-539 CNS
  TGI: > 100 µM
SW-620 colon
  TGI: > 100 µM
U251 CNS
  TGI: > 100 µM
K-562 leukemia
  TGI: > 100 µM
M19-MEL melanoma
  TGI: > 100 µM
OVCAR-5 ovarian
  TGI: > 100 µM
SNB-78 CNS
  TGI: > 100 µM
DMS 114 small cell lung
  TGI: > 100 µM
IGROV1 ovarian
  TGI: > 100 µM
SF-268 CNS
  TGI: > 100 µM
RPMI-8226 leukemia
  TGI: > 100 µM
HCT-15 colon
  TGI: > 100 µM
OVCAR-4 ovarian
  TGI: > 100 µM
TK-10 renal
  TGI: > 100 µM
HCT-116 colon
  TGI: > 100 µM
HOP-62 NSCLC
  TGI: > 100 µM
UACC-62 melanoma
  TGI: > 100 µM
SN12C renal
  TGI: > 100 µM
HCC-2998 colon
  TGI: > 100 µM
CAKI-1 renal
  TGI: > 100 µM
SNB-19 CNS
  TGI: > 100 µM
NCI-H522 lung
  TGI: > 100 µM
KM12 colon
  TGI: > 100 µM
SNB-75 CNS
  TGI: > 100 µM
CCRF-CEM leukemia
  TGI: > 100 µM
HT29 colon
  TGI: > 100 µM
XF 498 CNS
  TGI: > 100 µM
SK-MEL-2 melanoma
  TGI: > 100 µM
LOX IMVI melanoma
  TGI: > 100 µM
NCI-H23 lung
  TGI: > 100 µM
A549 NSCLC
  TGI: > 100 µM
NCI-H460 lung
  TGI: > 100 µM
